Test: Human HepG2 cell viability assay in 384 well format
Format: toxicity, cell-based
Design: dose 125 nL, time 70.5 hour; concentration not given beside the values
Conditions: HepG2 cells, read-out: Inhibition

| Structure (SMILES) | cytotoxicity at 70.5 h [%] |
| --- | --- |
| CCNc1ncc(C(=O)N2CCc3c(nc(C)nc3N(C)C)C2)cn1 | 25.4 |
| CS(=O)(=O)NCc1cc2n(n1)CCCN(Cc1ccc(Cl)s1)C2 | -9.1 |
| CN(Cc1ccc(-n2cccn2)cc1)Cc1ncc[nH]1 | -9.75 |
| CC(C)CCn1cc(C(C(=O)O)N2CCSCC2)cn1 (centres undefined) | -12.4 |
| COc1cccc(OCC2CCCN(C(=O)CCc3cc(O)no3)C2)c1 (centres undefined) | -21.1 |
| CC(C)c1cc(NCC2(N3CCOCC3)CCCCC2)ncn1 | 45.2 |
| CC(C)(C)c1cc(=O)[nH]c(-c2ccccc2CN2CCC[C@@H](O)C2)n1 | -2.12 |
| COCCc1noc(-c2cn(Cc3ccc(OC)cc3)nn2)n1 | 7.6 |
| CCCc1cc(C(=O)N2Cc3ccccc3C2)[nH]n1 | 6.06 |
| O=C1CC(C(=O)O)C2(CCN(C(=O)Nc3ccccc3Cl)CC2)N1 (centres undefined) | -2.72 |
| O=C(Cn1ccc2ncccc2c1=O)N1CCSCC1 | 29.2 |
| CN(C)CC1(O)CCCN(C(=O)CCc2nc3cccnc3n2C)C1 (centres undefined) | -9.56 |
| c1cncc(NCCNC2CCCNC2)c1 (centres undefined) | 2.18 |
| COCCn1cnnc1CCn1ccnc1-c1ccccc1Cl | 5.9 |
| O=C1NCCc2c1sc1ccc(C(=O)N3CC[C@H](CO)[C@H](O)C3)cc21 | -2.24 |
| CN1CCC(N(CCc2ccccc2)C(=O)c2ccoc2)CC1 | -7.47 |
| COc1cccc(C(=O)N2CCN(C(=O)CCCc3cn[nH]c3)CC2)c1 | -2.77 |
| Cc1nc(O)cc(CN2CC=C(c3cnn(C(C)(C)C)c3)CC2)n1 | -10.5 |
| CCC(C)N(Cc1cccnc1)Cc1cc2c(cc1OC)OCO2 (centres undefined) | 0.778 |
| O=C(c1cccc(S(=O)(=O)NC[C@@H]2C[C@H](F)CN2)c1)N1CCCCC1 | 4.39 |
| O=C(c1ccc2c(c1)CCC2)N1CCN(c2ccc(Cl)cn2)CC1 | 6.01 |
| Cc1nn(CCO)c(C)c1CN1CCN(C2CCCCC2)C(=O)C1 | 0.129 |

| Structure (SMILES) | cytotoxicity at 70.5 h [%] |
| --- | --- |
| OC[C@@H]1CCCN1c1ccc(-c2nc(COc3ccccc3)no2)cn1 | 1.55 |
| CCC(C)N(Cc1ccsc1)C(=O)c1ccc2[nH]nnc2c1 (centres undefined) | 24.9 |
| O=C(c1ccncc1F)N1CCCC(c2nccn2CC2CCC2)C1 (centres undefined) | -21.7 |
| CC(C)c1noc(-c2ccc(NCCCN3CCCC(O)C3)nc2)n1 (centres undefined) | -6.37 |
| O=C(NCCn1ccnc1-c1cc2n(n1)CCNC2)c1ccncc1 | -5.81 |
| O=C(c1cn2cc(Cl)ccc2n1)N1CCC(CCn2cccn2)CC1 | 19.9 |
| CN(C)C(C(=O)N1CCN(CC(F)(F)F)CC1)c1ccccc1F (centres undefined) | -1.96 |
| Cc1cc(C)n(-c2ccc(C(=O)NCC(CO)Cc3cccs3)cc2)n1 (centres undefined) | -8 |
| Cc1cc(C(=O)N2CCc3ncnc(N4CCSCC4)c3CC2)[nH]n1 | -5.82 |
| COc1nc2ccccc2cc1C1CC(=O)Nc2n[nH]c(C3CCC3)c21 (centres undefined) | 4.02 |
| CNCCN1C(=O)CC[C@H]2CN(c3cnc4ccccc4n3)CC[C@H]21 | -2.89 |
| Cc1ccc2nc(C)c(C)c(C(=O)N[C@H]3COC[C@@H]3N3CCCC3)c2c1 | -3.96 |
| COc1ncccc1C(=O)N1CCC(c2nc3c(C)cccc3[nH]2)CC1 | -6.55 |
| CCN(CCn1cccn1)Cc1nc(-c2ccoc2)oc1C | 14 |
| Cc1cc(C2CCCN2Cc2cccc(C(=O)Nc3nccs3)c2)no1 (centres undefined) | -14.5 |
| Cc1nc(CN2CC[C@@H]3[C@@H](CCC(=O)N3CCc3c[nH]cn3)C2)co1 | 13 |
| Nc1nc(O)cc(N2CCC(c3cc(Cc4ccccc4)n[nH]3)CC2)n1 | -3.99 |
| CC(=O)Nc1ccc(CN2CCc3[nH]cnc3C2c2nccn2C)cc1 (centres undefined) | -3.14 |
| CCn1ncc(CNC(=O)c2cn(CCC3CCCCN3)nn2)c1C (centres undefined) | -6.28 |
| CCCc1cc(CNC(=O)Cc2cc(C)no2)on1 | 1.19 |
| CCc1noc(CN(CC)Cc2cc3cc(C)ccc3[nH]c2=O)n1 | -10.7 |
| CN1CCN(c2cnn(CCn3cccn3)c(=O)c2)CC1 | -3.04 |

| Structure (SMILES) | cytotoxicity at 70.5 h [%] |
| --- | --- |
| Cc1ccccc1C(C(=O)NCCN1CCC(CO)CC1)N(C)C (centres undefined) | -3 |
| Cc1nccc(-c2cccc(-c3ccn(CC4CCNC4)n3)c2)n1 (centres undefined) | -3.45 |
| COc1ccc(-c2cn(CCn3c(C)cc(C)nc3=O)nn2)cn1 | -9.73 |
| CCc1ccccc1CN1CCN(Cc2ncc[nH]2)[C@H]2CS(=O)(=O)C[C@H]21 | -3.46 |
| Cc1cc(NC(C)Cc2cccs2)n2nccc2n1 (centres undefined) | -14.7 |
| Cc1ccc(C(=O)N2C[C@H](NS(C)(=O)=O)[C@@H](C(C)C)C2)cc1F | 2.48 |
| Cc1cc(Cl)ccc1C(=O)C1CCCN(Cc2cnc(N(C)C)s2)C1 (centres undefined) | -5.77 |
| Cc1nn(C)c(Oc2ccc(Cl)cc2)c1CN1CC[C@H](CO)[C@@H](O)C1 | -12.9 |
| CC(C)=CCN1CCN(CCCc2ccccc2)[C@H]2CS(=O)(=O)C[C@H]21 | -6.15 |
| COCCN1CC(Nc2nc(C3CCCC3)nc3c2cnn3C)CC1=O (centres undefined) | 18.4 |
| O=C(c1cc(Cn2ccc3ccccc32)[nH]n1)N1CCOCC1 | -0.75 |
| Cc1nc(CN(C)c2nccc(C(F)(F)F)n2)cs1 | -7.33 |
| Nc1ncccc1CN1C[C@@H]2CC[C@H](C1)N(CC1CC1)C2=O | 28 |
| CCC(=O)N1CCc2[nH]cnc2C12CCN(C1CCOCC1)CC2 | -4.44 |
| O=C(NCc1c[nH]c(=O)[nH]c1=O)C1CCOc2ccccc2C1 (centres undefined) | 8.26 |
| CCn1nc(C)c(CCNC(=O)C2CCCN(C(=O)COC)C2)c1C (centres undefined) | 18 |
| CC(C)C1CN(S(=O)(=O)C2CC2)CCCN1Cc1ccc(F)cc1 (centres undefined) | -3.51 |
| COC(=O)c1ccn(CC(=O)Nc2nn(CC3CC3)c3ccccc23)n1 | -0.998 |
| CN1CSC[C@H]1C(=O)N1CCN(Cc2cccc(Cl)c2)CC1 | -5.08 |
| COCC1CCN(C(=O)c2cc(-c3ccco3)nc3c(Cl)cccc23)C1 (centres undefined) | -20.7 |
| Cc1ccc(C2(O)CCN(C(=O)CCn3ccc(=O)[nH]c3=O)CC2)nc1 | -10.1 |
| COc1cc(C)ccc1OCc1nc(C(=O)N2CCCC2)co1 | 0.58 |

| Structure (SMILES) | cytotoxicity at 70.5 h [%] |
| --- | --- |
| CCN(CC)C(=O)Cn1cc(-c2nc(-c3ccccc3C)no2)nn1 | -9.94 |
| CCOCCNC(=O)c1cccc(S(=O)(=O)NC[C@@H]2C[C@H](F)CN2)c1 | 31.3 |
| COCc1cc(CN(C)C(C(=O)O)c2cc(C)c(OC)c(C)c2)n[nH]1 (centres undefined) | -2.3 |
| Cc1cnc(-n2cnnc2)c(-c2cccc3c2CCNC3)c1 | -7.78 |
| CN(Cc1ccccc1)S(=O)(=O)N1C[C@H](C2CC2)[C@@H](N)C1 | -1.23 |
| O=C(c1c[nH]c(=O)[nH]c1=O)N1CCCC(c2nccn2CC2CCC2)C1 (centres undefined) | -24.3 |
| CC/C=C(\C)CN1CCC(CNC(=O)c2ccc(=O)[nH]c2)CC1 | -6.38 |
| Cc1ccc2nc(CN3CCC(O)(CN4CCCC4)CC3)cc(O)c2c1 | -7.1 |
| CN(CC1Cc2ccccc2CN1C)C(=O)Cc1cccs1 (centres undefined) | -6.46 |
| CCn1c(Cn2ccnc2)nnc1C1CCN(Cc2ccc(C)o2)CC1 | 5.39 |
| c1cncc(NCCNC2CCSC2)c1 (centres undefined) | 14.7 |
| Cc1nonc1C1CCCN1C(=O)c1cc2n(n1)CCCN(C(C)C)C2 (centres undefined) | -6.2 |
| O=C(NCCN1CCOC1=O)c1cc(-c2ccccc2)on1 | 33.3 |
| CN1CC2(CCCN(Cc3nnc(-c4ccco4)o3)CC2)OC1=O (centres undefined) | -0.887 |
| CSCc1nc(CCNC(=O)c2cnn(C(C)C)c2)cs1 | -1.66 |
| O=S1(=O)C[C@@H]2[C@H](C1)N(Cc1cccc(O)c1)CCN2CC1CC1 | -5.99 |
| CCCc1cc(C(=O)NC2CCCCNC2=O)[nH]n1 (centres undefined) | -5.95 |
| CC(=O)Nc1ccc2nc(-c3nccn3CC(C)(C)CO)ccc2c1 | -11 |
| C1CCC(CNC2CCSCC2)(N2CCOCC2)CC1 | 3.74 |
| COc1ccc(Oc2ccc(C(F)(F)F)cn2)cc1CN1CCCC1 | -11.6 |
| Oc1cc(CN2CCC(O)(Cn3ccnc3)CC2)nc2ccc(F)cc12 | -7.61 |
| Cc1ccc2nc(C)c(C)c(C(=O)NCCCn3cnnc3)c2c1 | -2.61 |

| Structure (SMILES) | cytotoxicity at 70.5 h [%] |
| --- | --- |
| Cc1nc2c(c(N3CCN(c4ncccc4C(N)=O)CC3)n1)CCNC2 | -3.51 |
| COCCN1C[C@H]2CC[C@@H]1CN(CC(=O)Nc1ccn(C)n1)C2 | -9.39 |
| COc1cccc(N2CCN(C(C(=O)O)c3ccc(OC)nc3)CC2)c1 (centres undefined) | -9.28 |
| CCN(CC)Cc1cc(C(=O)N2CC[C@@]3(O)CCCC[C@H]3C2)c(C)o1 | -9.79 |
| CC(C)CN1CC2(CCN(C(=O)C(O)c3cccc(Cl)c3)CC2)CC1=O (centres undefined) | 1.55 |
| CCN1CCC2(CCC1=O)CN(c1nccc(N)n1)CCN2C (centres undefined) | -4.72 |
| NCc1cn(CC2CCCN(C(=O)NCCc3ccc(F)cc3)C2)nn1 (centres undefined) | 22.7 |
| Cn1cnc(S(=O)(=O)N2C[C@@H]3CC[C@H](C2)N(Cc2cscn2)C3=O)c1 | -6.52 |
| CC(C)c1noc(CC[C@@H]2CCCN3CCCC[C@H]23)n1 | -0.439 |
| O=C(Cn1nnc(-c2ccc(F)cc2)n1)N1CCOCC(O)C1 (centres undefined) | -1.8 |
| CCN(Cc1ccc(C(C)C)cc1)C(=O)c1csc(CN(C)C)n1 | 7.36 |
| CC(C)=CCN1CCc2onc(-c3ccc(F)c(F)c3)c2C1 | -11.7 |
| O=C(O)c1cccnc1CN1CCCCC1CCc1ccccn1 (centres undefined) | -14.4 |
| CCc1ccc2nc(C)cc(C(=O)N[C@@H]3C[C@@H](CO)N(C)C3)c2c1 | -3.88 |
| CCN(CC)Cc1cc(C(=O)N2CCC3(CC2)NCCNC3=O)c(C)o1 | 1.97 |
| Cn1ccnc1-c1ccc(NCc2cn3c(n2)SCC3)nn1 | -1.93 |
| CN(C)S(=O)(=O)N1CCCCC1CCc1ccc(O)cc1 (centres undefined) | -6.59 |
| O=C(CN1CCCCC1=O)N1CCC2(CC1)[C@H](O)C[C@@H]2O | -3.31 |
| O=C(CSc1ccncc1)NC1CC(=O)N(CCc2ccccc2)C1 (centres undefined) | -8.43 |
| CN(C)CC1(O)CCN(C(=O)c2cnc(CN3CCCC3)s2)C1 (centres undefined) | 0.326 |
| CN(C)c1nc2c(c(N3CCc4c(c(CO)nn4C)C3)n1)CCNC2 | 46.5 |
